Assay results published in US8598204B2, “1,2-dihydro-2-oxoquinoline compounds as 5-HT4 receptor ligands” (Suven Life Sciences Limited, priority 2009, dated 2013).
Where a name gives a salt, the structure may show the parent alone.

How the values were obtained:
[1] = target: T1, recombinant human 5-HT4 receptor (Homo sapiens, UniProt Q13639); experiment: Determination of EC50 values for 5-HT4 receptor (CRE-luciferase reporter, CHO cells); assay type: cell-based; details: stable CHO cell line expressing recombinant human 5-HT4 receptor and pCRE-Luc reporter; 4 hours incubation; luciferase activity
T1 construct: expressed in transfected cells
T1 sequence (Q13639 whole entry): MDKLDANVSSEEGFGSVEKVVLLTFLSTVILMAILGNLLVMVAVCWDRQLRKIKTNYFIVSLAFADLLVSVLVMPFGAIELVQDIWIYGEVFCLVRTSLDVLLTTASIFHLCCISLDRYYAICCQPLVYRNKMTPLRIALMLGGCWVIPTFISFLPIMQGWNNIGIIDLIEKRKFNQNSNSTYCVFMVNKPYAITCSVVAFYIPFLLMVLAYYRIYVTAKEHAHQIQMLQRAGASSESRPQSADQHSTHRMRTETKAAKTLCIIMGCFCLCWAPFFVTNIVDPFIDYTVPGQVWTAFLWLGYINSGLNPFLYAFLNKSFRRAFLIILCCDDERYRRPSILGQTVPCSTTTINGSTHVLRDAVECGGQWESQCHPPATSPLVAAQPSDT
Procedure: A stable CHO cell line expressing recombinant human 5-HT4 receptor and pCRE-Luc reporter system was used for cell-based assay. The assay offers a non-radioactive based approach to determine binding of a compound to GPCRs. In this specific assay, the level of intracellular cyclic AMP which is modulated by activation or inhibition of the receptor is measured. The recombinant cells harbor luciferase reporter gene under the control of cAMP response element.
The above cells were grown in 96 well clear bottom white plates in Hams F12 medium containing 10% fetal bovine serum (FBS). Prior to the addition of compounds or standard agonist, cells were serum starved overnight. Increasing concentrations of test compounds were added in OptiMEM medium to the cells. The incubation was continued at 37° C. in CO2 incubator for 4 hours. Medium was removed and cells were washed with phosphate buffered saline. The cells were lysed and luciferase activity was measured in a Luminometer. Luminescence units were plotted against the compound concentrations using Graphpad software. EC50 values of the compounds were defined as the concentration required in stimulating the luciferase activity by 50%.

[2] = Rodent pharmacokinetic study; assay type: in vivo; details: Wistar, rat, plasma, Wister/Male rats, 5 mg/kg; for AUC(0-t) / Cmax / Tmax / half-life: vehicle Water
Procedure: Male Wister rats (230-280 grams) obtained from NIN (National Institute of Nutrition, Hyderabad, India) was used as an experimental animal. Three to five animals were housed in each cage. One day prior to dosing day, male wistar rats (225-250 grams) were anesthetized with isoflurane for surgical placement of jugular vein catheter. Animals were kept fasted over night and maintained on a 12 hours light/dark cycle. Three rats were dosed NCE (5 mg/Kg) orally and intravenously on day 0 and day 2.
At each time point blood was collected by jugular vein. Plasma was stored frozen at −20° C. until analysis. The concentrations of the NCE compound in plasma were determined using LC-MS/MS method. Schedule time points: Pre dose 0.25, 0.5, 1, 1.5, 2, 3, 4, 6, 8, 10, 12 and 24 hours after dosing (n=3). The NCE compounds were quantified in plasma by validated LC-MS/MS method using solid phase extraction technique. NCE compounds were quantified in the calibration range of 2-2000 ng/mL in plasma. Study samples were analyzed using calibration samples in the batch and quality control samples spread across the batch.
Pharmacokinetic parameters Cmax, Tmax, AUCt, T1/2 and Bioavailability were calculated by non-compartmental model using software WinNonlin version 5.0.1.

[3] = Rodent brain penetration study; assay type: in vivo; details: Wistar, rat; Wister/Male rats, 10 mg/kg, Oral, vehicle Water; brain/plasma; read-out: Steady State Brain Penetration (Cb/Cp)
Procedure: Male Wister rats (230-280 grams) obtained from NIN (National Institute of Nutrition, Hyderabad, India) was used as an experimental animal. Three animals were housed in each cage. Animals were given water and food ad libitum throughout the experiment, and maintained on a 12 hours light/dark cycle.
Brain penetration was determined in discrete manner in rats. One day prior to dosing day, male wistar rats (225-250 grams) were acclimatized. After acclimatization the rats were grouped according to the weight in each group, 3 animals were kept in individual cage and allowed free access to food and water. At each time point (0.5, 1, and 2 hours) n=3 animals were used.
NCE compound was dissolved in water and administered orally at (free base) 10 mg/kg. Blood samples were removed via, cardiac puncture by using isofurane anesthesia the animals were sacrificed to collect brain tissue. Plasma was separated and Brain samples were homogenized and stored frozen at −20° C. until analysis. The concentrations of the NCE compound in plasma and Brain were determined using LC-MS/MS method.
The NCE compounds were quantified in plasma and brain homogenate by validated LC-MS/MS method using solid phase extraction technique. NCE compounds were quantified in the calibration range of 1-500 ng/mL in plasma and brain homogenate. Study samples were analyzed using calibration samples in the batch and quality control samples spread across the batch. Extents of brain-blood ratio were calculated (Cb/Cp).

[4] = system: novel object recognition (cognition) in rats; experiment: Object recognition task model; assay type: in vivo, rat; details: 1 mg/kg p.o.
Procedure: The cognition-enhancing properties of compounds of this invention were estimated using a model of animal cognition: the object recognition task model.
Male Wister rats (230-280 grams) obtained from N. I. N. (National Institute of Nutrition, Hyderabad, India) was used as experimental animals. Four animals were housed in each cage. Animals were kept on 20% food deprivation before one day and given water ad libitum throughout the experiment and maintained on a 12 hours light/dark cycle. Also the rats were habituated to individual arenas for 1 hour in the absence of any objects.
One group of 12 rats received vehicle (1 mL/Kg) orally and another set of animals received compound of the formula (I) either orally or i.p., before one hour of the familiar (T1) and choice trial (T2).
The experiment was carried out in a 50×50×50 cm open field made up of acrylic. In the familiarization phase (T1), the rats were placed individually in the open field for 3 minutes, in which two identical objects (plastic bottles, 12.5 cm height×5.5 cm diameter) covered in yellow masking tape alone (a1 and a2) were positioned in two adjacent corners, 10 cm. from the walls. After 24 hours of the (T1) trial for long-term memory test, the same rats were placed in the same arena as they were placed in (T1) trial. Choice phase (T2) rats were allowed to explore the open field for 3 minutes in presence of one familiar object (a3) and one novel object (b) (Amber color glass bottle, 12 cm high and 5 cm in diameter). Familiar objects presented similar textures, colors and sizes. During the T1 and T2 trial, explorations of each object (defined as sniffing, licking, chewing or having moving vibrissae whilst directing the nose towards the object at a distance of less than 1 cm) were recorded separately by stopwatch. Sitting on an object was not regarded as exploratory activity, however, it was rarely observed.
T1 is the total time spent exploring the familiar objects (a 1+a2).
T2 is the total time spent exploring the familiar object and novel object (a3+b).
The object recognition test was performed as described by Ennaceur, A., Delacour, J., 1988, A new one-trial test for neurobiological studies of memory in rats—Behavioural data, Behav. Brain Res., 31, 47-59.

[5] = choice trial T2 24 hours after T1

Row | Compound | EC50 [1] [µM] | also measured
1 | CC(C)n1c(=O)c(C(=O)NCCCN2CC3CC4CC2CN(C4)C3)c(O)c2ccccc21 (centres unmarked) [Example 6, N-[(1,4-Diazatricyclo[4.3.1.1^3,8]undec-4-yl)propyl]-4-hydroxy-1-isopropyl-2-oxo-1,2-dihydro-quinoline-3-carboxamide] | 0.667 | –
2 | N-[(2-Azatricyclo[3.3.1.1^3,7]dec-2-yl) propyl]-4-hydroxy-1-isobutyl-6-methoxy-2-oxo-1,2-dihydroquinoline-3-carboxamide [Example 7] | 1 | –
3 | CC(C)Cn1c(=O)c(C(=O)NCCCN2C3CC4CC(C3)CC2C4)c(O)c2ccccc21 [Example 2, N-[(2-Azatricyclo[3.3.1.1^3,7]dec-2-yl)propyl]-4-hydroxy-1-isobutyl-2-oxo-1,2-dihydroquinoline-3-carboxamide hydrochloride] | 4.02 | –
4 | CC(C)n1c(=O)c(C(=O)NCCCN2C3CC4CC2CC(c2ccccc2)(C4)C3)c(O)c2ccccc21 [Example 5, N-[(5-Phenyl-2-azatricyclo[3.3.1.1^3,7]dec-2-yl)propyl]-4-hydroxy-1-isopropyl-2-oxo-1,2-dihydroquinoline-3-carboxamide hydrochloride] | 1.6 | –
5 | CC(C)n1c(=O)c(C(=O)NCCCN2C3CC4CC(C3)CC2C4)c(O)c2cc(Br)ccc21 [Example 10, N-[(2-Azatricyclo[3.3.1.1^3,7]dec-2-yl)propyl]-6-bromo-4-hydroxy-1-isopropyl-2-oxo-1,2-dihydroquinoline-3-carboxamide] | 2.8 | –
6 | CC(C)n1c(=O)c(C(=O)NC2C3CCN(CC3)C2Cc2cccnc2)c(O)c2ccccc21 (centres unmarked) [Example 12, N-[2-(Pyridin-3-ylmethyl)-1-azabicyclo[2.2.2]oct-3-yl]-4-hydroxy-1-isopropyl-2-oxo-1,2-dihydroquinoline-3-carboxamide] | 0.972 | –
7 | CC(C)n1c(=O)c(C(=O)NCCCN2C3CC4CC(C3)CC2C4)c(O)c2cc(Cl)ccc21 [Example 8, N-[(2-Azatricyclo[3.3.1.1^3,7]dec-2-yl)propyl]-6-chloro-4-hydroxy-1-isopropyl-2-oxo-1,2-dihydroquinoline-3-carboxamide] | 3.08 | –
8 | CC(C)n1c(=O)c(C(=O)NC2C3CCN(CC3)C2Cc2ccccn2)c(O)c2ccccc21 (centres unmarked) [Example 13, N-[2-(Pyridin-2-ylmethyl)-1-azabicyclo[2.2.2]oct-3-yl]-4-hydroxy-1-isopropyl-2-oxo-1,2-dihydroquinoline-3-carboxamide] | 0.462 | –
9 | CC(C)n1c(=O)c(C(=O)NC2C3CCN(CC3)C2Cc2ccccc2)c(O)c2ccccc21 (centres unmarked) [Example 16, N-(2-Benzyl-1-azabicyclo[2.2.2]oct-3-yl)-4-hydroxy-1-isopropyl-2-oxo-1,2-dihydroquinoline-3-carboxamide] | 3.92 | –
10 | CC(C)n1c(=O)c(C(=O)NC2CCN(C3C4CC5CC(C4)CC3C5)C2)c(O)c2ccccc21 (centres unmarked) [Example 3, N-[1-(Tricyclo[3.3.1.1^3,7]dec-2-yl)pyrrolidin-3-yl]-4-hydroxy-1-isopropyl-2-oxo-1,2-dihydroquinoline-3-carboxamide] | 1.11 | –
11 | CC(C)n1c(=O)c(C(=O)NCCCN2C3CC4CC(C3)CC2C4)c(O)c2cc(F)ccc21 [Example 9, N-[(2-Azatricyclo[3.3.1.1^3,7]dec-2-yl)propyl]-6-fluoro-4-hydroxy-1-isopropyl-2-oxo-1,2-dihydroquinoline-3-carboxamide] | 0.935 | –

Further lines, with some results ahead:

Row | EC50 [1] [µM] | Compound | also measured
12 | 0.077 | CCCCN1CCC(NC(=O)c2c(O)c3ccccc3n(C(C)C)c2=O)CC1 [Example 20, N-(1-Butylpiperidin-4-yl)-4-hydroxy-1-isopropyl-2-oxo-1,2-dihydroquinoline-3-carboxamide hydrochloride] | –
13 | 0.476 | CC(C)n1c(=O)c(C(=O)NC23CC4CC2CC(N2CCCC2)(C4)C3)c(O)c2ccccc21 (centres unmarked) [Example 21] | –
14 | 0.307 | CC(C)n1c(=O)c(C(=O)NC23CC4CC(C2)N(C)C(C4)C3)c(O)c2ccccc21 [Example 14, N-(2-Methyl-2-azatricyclo[3.3.1.1^3,7]dec-5-yl)-4-hydroxy-1-isopropyl-2-oxo-1,2-dihydro-quinoline-3-carboxamide] | bioavailability ([2]; Oral versus Intravenous): 28 ± 3%; AUC(0-t) ([2]; Intravenous): 820 ± 247 ng·h/mL; Cmax ([2]; Intravenous): 523 ± 57 ng/mL; Tmax ([2]; Intravenous): 0.08 h; half-life ([2]; Intravenous): 3.31 ± 1.47 h; AUC(0-t) ([2]; Oral): 223 ± 50 ng·h/mL; Cmax ([2]; Oral): 67 ± 17 ng/mL; Tmax ([2]; Oral): 0.42 ± 0.14 h; half-life ([2]; Oral): 1.67 ± 0.27 h; Kp [3]: 2.97 ± 0.94
15 | 3 | CC(C)n1c(=O)c(C(=O)NCCCN2C3CC4CC(C3)CC2C4)c(O)c2cc(N)ccc21 [Example 11, N-[(2-Azatricyclo[3.3.1.1^3,7]dec-2-yl)propyl]-6-amino-4-hydroxy-1-isopropyl-2-oxo-1,2-dihydroquinoline-3-carboxamide] | –
16 | 1.15 | CC(C)n1c(=O)c(C(=O)NCCN2C3CC4CC(C3)CC2C4)c(O)c2ccccc21 [Example 17, N-[(2-Azatricyclo[3.3.1.1^3,7]dec-2-yl)ethyl]-4-hydroxy-1-isopropyl-2-oxo-1,2-dihydroquinoline-3-carboxamide hydrochloride] | –
17 | 0.645 | CCN1C2CC3CC1CC(CNC(=O)c1c(O)c4ccccc4n(C(C)C)c1=O)(C3)C2.Cl [Example 19, N-(2-Ethyl-2-azatricyclo[3.3.1.1^3,7]dec-5-ylmethyl)-4-hydroxy-1-isopropyl-2-oxo-1,2-dihydroquinoline-3-carboxamide hydrochloride] | Inference [4]: Active; Exploration time mean ± S.E.M, Familiar object [4, 5]: 8.83 ± 1.54 s; Exploration time mean ± S.E.M, Novel object [4, 5]: 14.09 ± 1.56 s
18 | 0.958 | CCCCN1C2CC3CC1CC(NC(=O)c1c(O)c4ccccc4n(C(C)C)c1=O)(C3)C2 [Example 18, N-(2-Butyl-2-azatricyclo[3.3.1.1^3,7]dec-5-yl)-4-hydroxy-1-isopropyl-2-oxo-1,2-dihydroquinoline-3-carboxamide hydrochloride] | –
19 | 2.73 | CC(C)N1C2CC3CC1CC(NC(=O)c1c(O)c4ccccc4n(C(C)C)c1=O)(C3)C2 [Example 15, N-(2-Isopropyl-2-azatricyclo[3.3.1.1^3,7]dec-5-yl)-4-hydroxy-1-isopropyl-2-oxo-1,2-dihydro-quinoline-3-carboxamide] | –
